Experimental data taken from patent EP0284202A1, “Substituted hydantoin compounds” (THE WELLCOME FOUNDATION LIMITED, priority 1987, dated 1988).

Tests used:
[1] = test system: rabbit jugular vein; assay: Rabbit jugular vein relaxation: antagonism of PGD₂ and compound A; details: potency compared with the antagonism in platelet aggregation
Experimental: Vascular smooth muscle relaxation in response to PGD₂ and compound A was measured as changes in isometric force. Isolated ring segments of rabbit jugular vein suspended in Kreb's buffer, gassed with 95% O₂/5% CO₂ and maintained at 37°C, were treated with: indomethacin, 1 µg ml⁻¹, and the stable thromboxane receptor antagonist BM13177 (Patscheke et al, Biomed. Biochem. Acta (1984) 43, 5321), 30µM. The experiments followed a paired curve design.
Initially, the jugular vein ring segments were subjected to a force of 0.75g, then allowed to stabilize for a period of 60 minutes during which time the preparations were washed three times. Subsequently histamine (10⁻⁶M) was added to produce tone. After establishing a stable contraction, relaxation/concentration effect curves were obtained using prostaglandin receptor agonists. Responses were expressed as per cent relaxations of the histamine-induced force. The preparations were then washed thoroughly and allowed to re-stabilise. The antagonists were then incubated for 60 minutes prior to constriction with histamine (10⁻⁶M), followed by a second determination of the prostaglandin agonist concentration effect curve.
(§1) Measurement of antagonist affinity (pKB) was by Schild analysis.

[2] = test system: prostaglandin receptors other than DP; assay: Actions at other prostaglandin receptors (selectivity); details: actions not observed up to this multiple
[3] = target: T1, PGD₂ receptor on the human platelet (Homo sapiens, UniProt Q13258); assay: Inhibition of ADP-induced aggregation in washed human platelets: antagonism of PGD₂ and compound A, Schild analysis; format: cell-based
T1 construct: endogenous in cells; host or cells: washed human platelets
T1 sequence (Q13258 1-359): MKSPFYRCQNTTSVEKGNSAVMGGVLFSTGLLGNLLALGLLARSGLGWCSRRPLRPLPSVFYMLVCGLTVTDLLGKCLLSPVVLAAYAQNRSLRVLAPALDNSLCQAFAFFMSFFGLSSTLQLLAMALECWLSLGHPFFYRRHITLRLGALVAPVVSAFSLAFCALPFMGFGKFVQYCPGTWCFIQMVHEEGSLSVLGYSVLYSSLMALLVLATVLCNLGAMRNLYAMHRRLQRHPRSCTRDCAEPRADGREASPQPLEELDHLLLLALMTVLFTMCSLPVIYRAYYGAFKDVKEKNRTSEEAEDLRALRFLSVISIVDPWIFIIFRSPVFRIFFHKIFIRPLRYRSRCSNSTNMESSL
Experimental: Washed platelet suspensions were prepared according to a modified version of the method of Vargas et al (Prostaglandins (1982) 23, 929). The suspension was then stored at 4°C for 2 hours and, before use, the following additions were made: Ca⁺⁺ʼ […], indomethacin, 5mcg ml⁻¹; and fibrinogen, 400 mcg ml⁻¹. Aggregation responses were measured using 0.5ml aliquots of the suspension maintained at 37°C and stirred with a metal bar at 900 r.p.m. in 300 BD-S Payton dual channel aggregometers and recorded on Gould BS 272 pen recorders.
Inhibition of platelet aggregation by PGD₂ and compound A were studied as follows. The prostaglandin receptor agonists were incubated in the platelet suspension for 6 minutes prior to adding ADP (5 × 10⁻⁵M). The reproducibility of the ADP-induced aggregation response was checked at intervals throughout the experiment. Antagonists were added 2 minutes before the agonist. Responses were expressed as percent inhibitions of the standard ADP-induced aggregation.
as §1

Question: Which results are given for `O=C(O)CCCCCCC1C(=O)N(Cc2ccccc2)C(=O)N1NCC(O)C1CCCCC1` (centres unmarked) [Example 3, 3-Benzyl-5-(6-carboxylhexyl)-1-(2-hydroxy-2-cyclohexylethylamino) hydantoin]?
Answer: antagonism of the relaxation effects of PGD₂ and compound A [1]: antagonised with similar potencies; concentrations without actions at prostaglandin receptors other than DP, relative to that required for DP receptor affinity [2]: > 1000 ×; Kb ([3]; antagonist affinity by Schild analysis, shifts of anti-aggregatory concentration effect curves for PGD₂ and compound A, human washed platelets): 0.55 nM; Schild plot slope ([3]; anti-aggregatory concentration effect curves for PGD₂ and compound A, human washed platelets): unity; behaviour at the PGD₂ receptor on the human platelet ([3]; human washed platelet assay, agonists PGD₂ and compound A): simple competitive antagonist
